Assay [1] concerns the target Methyl-CpG-binding domain protein 4 (Homo sapiens) (UniProt O95243). Particulars: Compound Concentration 10.0 uM.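 Further: MBD4 activity read as fluorescence at 594 nm from cleavage and release of a quenched duplex DNA oligonucleotide, with APE1 coupled to incise the strand and raise turnover.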
Description: Inhibition of MBD4 by quantifying inhibition of MBD4-mediated cleavage and dissociation of quenched duplex DNA oligonucleotides, measured as fluorescence at 594 nm. To generate a functional strand incision and increase turn-over this assay is coupled to APE1.
The target of assay [2] is Endonuclease 8-like 1 (Homo sapiens) (UniProt Q96FI4). Particulars: Compound Concentration 10.0 uM, Hit No.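 Further: fluorescence at 594 nm from quenched duplex DNA oligonucleotides released by NEIL1 cleavage and strand separation, reported as reduction of this enzyme activity.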
Chain of Endonuclease 8-like 1 (Homo sapiens) (Q96FI4 whole entry): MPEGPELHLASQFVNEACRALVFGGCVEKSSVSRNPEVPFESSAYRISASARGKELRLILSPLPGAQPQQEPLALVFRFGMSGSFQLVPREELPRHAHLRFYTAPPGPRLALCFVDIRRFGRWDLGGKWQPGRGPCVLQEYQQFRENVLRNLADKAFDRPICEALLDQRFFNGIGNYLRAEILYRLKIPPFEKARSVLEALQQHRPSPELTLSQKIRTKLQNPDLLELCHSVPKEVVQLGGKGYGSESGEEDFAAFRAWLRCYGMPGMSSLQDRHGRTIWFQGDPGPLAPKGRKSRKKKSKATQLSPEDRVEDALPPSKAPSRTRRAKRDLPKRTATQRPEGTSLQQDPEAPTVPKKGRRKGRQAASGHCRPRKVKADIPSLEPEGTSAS
Description: Inhibition of NEIL1 by quantifying inhibition of NEIL1-mediated cleavage and dissociation of quenched duplex DNA oligonucleotides, measured as fluorescence at 594 nm.
Assay [3] has as its target T1, Single-strand selective monofunctional uracil DNA glycosylase (Homo sapiens) (UniProt Q53HV7).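 Further: enzymatic SMUG1 assay coupled with APE1, reading fluorescence at 594 nm released when a quenched double-stranded DNA oligonucleotide substrate is cleaved and separated.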
T1 sequence (whole entry): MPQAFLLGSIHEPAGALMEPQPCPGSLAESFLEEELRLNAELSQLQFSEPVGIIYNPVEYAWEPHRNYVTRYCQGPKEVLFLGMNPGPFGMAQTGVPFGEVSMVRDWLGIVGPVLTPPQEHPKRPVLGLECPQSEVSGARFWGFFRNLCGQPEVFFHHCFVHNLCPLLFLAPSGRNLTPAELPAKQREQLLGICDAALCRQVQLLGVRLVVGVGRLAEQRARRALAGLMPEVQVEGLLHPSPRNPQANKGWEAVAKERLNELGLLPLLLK
Conditions: Compound Concentration 10.0 uM, Hit No.
Description: Inhibition of SMUG1 by quantifying inhibition of SMUG1-mediated cleavage and dissociation of quenched duplex DNA oligonucleotides, measured as fluorescence at 594 nm. To generate a functional strand incision and increase turn-over this assay is coupled to APE1.

The target of assay [4] is T2, Endonuclease 8-like 2 (Homo sapiens) (UniProt Q969S2).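 Further: fluorescence at 594 nm reports NEIL2 cutting and release of a quenched double-stranded DNA oligo substrate, reduced signal read as inhibition.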
T2 sequence (whole entry): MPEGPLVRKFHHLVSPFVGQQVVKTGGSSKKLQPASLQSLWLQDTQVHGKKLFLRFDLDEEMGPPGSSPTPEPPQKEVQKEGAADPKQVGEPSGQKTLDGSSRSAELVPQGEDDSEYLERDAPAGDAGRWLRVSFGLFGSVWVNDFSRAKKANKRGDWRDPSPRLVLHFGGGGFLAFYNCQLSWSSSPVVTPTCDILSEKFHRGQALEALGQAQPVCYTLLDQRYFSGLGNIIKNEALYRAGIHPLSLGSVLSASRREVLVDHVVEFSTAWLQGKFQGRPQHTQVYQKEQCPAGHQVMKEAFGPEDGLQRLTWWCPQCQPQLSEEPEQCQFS
Particulars: Compound Concentration 10.0 uM, Hit No.
Description: Inhibition of NEIL2 by quantifying inhibition of NEIL2-mediated cleavage and dissociation of quenched duplex DNA oligonucleotides, measured as fluorescence at 594 nm.

The target in assay [5] is Uracil-DNA glycosylase (Homo sapiens) (UniProt P13051). Conditions: Compound Concentration 10.0 uM, Hit No.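 Further: UNG excision on a quenched double-stranded DNA oligo probe, with APE1 added for strand incision and turnover, read as fluorescence at 594 nm as strands separate.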
Chain of Uracil-DNA glycosylase (Homo sapiens) (P13051 whole entry): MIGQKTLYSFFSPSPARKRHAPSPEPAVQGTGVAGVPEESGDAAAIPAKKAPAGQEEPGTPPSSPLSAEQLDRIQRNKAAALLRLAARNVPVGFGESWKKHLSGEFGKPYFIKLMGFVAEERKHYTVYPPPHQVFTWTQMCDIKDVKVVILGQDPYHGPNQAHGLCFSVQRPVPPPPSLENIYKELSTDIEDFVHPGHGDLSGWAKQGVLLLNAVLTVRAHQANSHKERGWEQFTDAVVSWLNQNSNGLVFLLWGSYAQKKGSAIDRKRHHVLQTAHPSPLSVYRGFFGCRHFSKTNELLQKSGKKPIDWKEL
Description: Inhibition of UNG by quantifying inhibition of UNG-mediated cleavage and dissociation of quenched duplex DNA oligonucleotides, measured as fluorescence at 594 nm. To generate a functional strand incision and increase turn-over this assay is coupled to APE1.
Assay [6] deals with G/T mismatch-specific thymine DNA glycosylase (Homo sapiens) (UniProt Q13569). Conditions: Compound Concentration 10.0 uM.
Chain of G/T mismatch-specific thymine DNA glycosylase (Homo sapiens) (Q13569 whole entry): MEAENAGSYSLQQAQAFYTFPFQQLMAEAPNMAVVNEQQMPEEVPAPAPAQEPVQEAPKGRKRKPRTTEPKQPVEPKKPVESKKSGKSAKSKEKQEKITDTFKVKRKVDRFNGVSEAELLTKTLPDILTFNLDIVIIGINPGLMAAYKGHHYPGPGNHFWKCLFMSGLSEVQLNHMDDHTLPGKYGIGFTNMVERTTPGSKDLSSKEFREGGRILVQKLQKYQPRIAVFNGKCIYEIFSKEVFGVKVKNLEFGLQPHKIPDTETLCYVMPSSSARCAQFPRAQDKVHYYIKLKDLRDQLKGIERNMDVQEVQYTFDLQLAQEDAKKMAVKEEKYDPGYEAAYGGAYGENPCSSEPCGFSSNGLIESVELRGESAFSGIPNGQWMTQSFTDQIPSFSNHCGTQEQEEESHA
Description: Inhibition of TDG by quantifying inhibition of TDG-mediated cleavage and dissociation of quenched duplex DNA oligonucleotides, measured as fluorescence at 594 nm. To generate a functional strand incision and increase turn-over this assay is coupled to APE1.
The target in assay [7] is N-glycosylase/DNA lyase (Homo sapiens) (UniProt O15527). Particulars: Compound Concentration 10.0 uM.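 Further: OGG1 cleavage of a quenched duplex DNA oligonucleotide, coupled to APE1 for strand incision, read as fluorescence at 594 nm.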
Chain of N-glycosylase/DNA lyase (Homo sapiens) (O15527 whole entry): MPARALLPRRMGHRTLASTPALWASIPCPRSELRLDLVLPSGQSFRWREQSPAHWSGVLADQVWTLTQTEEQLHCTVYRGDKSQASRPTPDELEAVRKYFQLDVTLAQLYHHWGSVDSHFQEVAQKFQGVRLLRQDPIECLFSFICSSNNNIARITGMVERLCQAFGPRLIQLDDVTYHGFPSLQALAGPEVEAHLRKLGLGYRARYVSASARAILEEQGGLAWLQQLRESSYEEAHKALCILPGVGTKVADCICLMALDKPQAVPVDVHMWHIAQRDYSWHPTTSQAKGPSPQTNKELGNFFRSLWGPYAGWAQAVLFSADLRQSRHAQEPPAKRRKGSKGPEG
Description: Inhibition of OGG1 by quantifying inhibition of OGG1-mediated cleavage and dissociation of quenched duplex DNA oligonucleotides, measured as fluorescence at 594 nm. To generate a functional strand incision and increase turn-over this assay is coupled to APE1.
Assay [8] concerns the target DNA-3-methyladenine glycosylase (Homo sapiens) (UniProt P29372). Particulars: Compound Concentration 10.0 uM.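 Further: enzyme assay where MPG cuts a quenched duplex DNA oligonucleotide probe, paired with APE1 for strand incision and turnover, read as fluorescence at 594 nm.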
Description: Inhibition of MPG by quantifying inhibition of MPG-mediated cleavage and dissociation of quenched duplex DNA oligonucleotides, measured as fluorescence at 594 nm. To generate a functional strand incision and increase turn-over this assay is coupled to APE1.
In assay [9] the target is T3, Adenine DNA glycosylase (Homo sapiens) (UniProt Q9UIF7).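 Further: human MUTYH activity read as 594 nm fluorescence from cleavage and release of a quenched DNA duplex, coupled with APE1 for strand incision, lower signal meaning inhibition.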
T3 sequence (whole entry): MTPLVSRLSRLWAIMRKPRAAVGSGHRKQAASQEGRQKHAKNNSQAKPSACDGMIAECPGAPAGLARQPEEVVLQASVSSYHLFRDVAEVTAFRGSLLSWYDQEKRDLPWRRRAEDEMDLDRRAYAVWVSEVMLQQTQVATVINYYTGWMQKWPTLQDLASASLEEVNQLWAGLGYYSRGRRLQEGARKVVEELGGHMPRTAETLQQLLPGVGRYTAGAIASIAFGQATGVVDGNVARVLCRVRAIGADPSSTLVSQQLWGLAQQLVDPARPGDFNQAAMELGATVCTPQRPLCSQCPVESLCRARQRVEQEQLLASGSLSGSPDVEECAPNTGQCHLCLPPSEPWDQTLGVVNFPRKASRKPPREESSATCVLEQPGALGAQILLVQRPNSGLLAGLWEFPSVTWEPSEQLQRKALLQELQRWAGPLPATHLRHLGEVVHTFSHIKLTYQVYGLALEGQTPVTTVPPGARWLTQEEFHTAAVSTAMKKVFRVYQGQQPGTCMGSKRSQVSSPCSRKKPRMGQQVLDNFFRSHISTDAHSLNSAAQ
Particulars: Compound Concentration 10.0 uM, Hit No.
Description: Inhibition of MUTYH by quantifying inhibition of MUTYH-mediated cleavage and dissociation of quenched duplex DNA oligonucleotides, measured as fluorescence at 594 nm. To generate a functional strand incision and increase turn-over this assay is coupled to APE1.

Inhibition data for 18 compounds are collected here from ChEMBL document CHEMBL5665443, “Enzyme Inhibitor Single Concentration assay results for EUbOPEN Chemogenomics Library” (2024).

Chain of DNA-3-methyladenine glycosylase (Homo sapiens) (P29372 whole entry): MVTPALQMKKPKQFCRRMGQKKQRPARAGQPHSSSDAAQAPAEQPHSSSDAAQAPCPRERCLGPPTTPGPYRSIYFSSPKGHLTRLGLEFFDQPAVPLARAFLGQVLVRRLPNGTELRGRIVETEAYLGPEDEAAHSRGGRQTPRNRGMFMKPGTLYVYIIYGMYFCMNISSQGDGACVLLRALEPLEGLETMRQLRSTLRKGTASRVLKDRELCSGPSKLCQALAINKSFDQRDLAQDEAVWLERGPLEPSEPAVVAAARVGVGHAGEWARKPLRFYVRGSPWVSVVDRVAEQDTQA
Chain of Methyl-CpG-binding domain protein 4 (Homo sapiens) (O95243 whole entry, the tested form may be a part): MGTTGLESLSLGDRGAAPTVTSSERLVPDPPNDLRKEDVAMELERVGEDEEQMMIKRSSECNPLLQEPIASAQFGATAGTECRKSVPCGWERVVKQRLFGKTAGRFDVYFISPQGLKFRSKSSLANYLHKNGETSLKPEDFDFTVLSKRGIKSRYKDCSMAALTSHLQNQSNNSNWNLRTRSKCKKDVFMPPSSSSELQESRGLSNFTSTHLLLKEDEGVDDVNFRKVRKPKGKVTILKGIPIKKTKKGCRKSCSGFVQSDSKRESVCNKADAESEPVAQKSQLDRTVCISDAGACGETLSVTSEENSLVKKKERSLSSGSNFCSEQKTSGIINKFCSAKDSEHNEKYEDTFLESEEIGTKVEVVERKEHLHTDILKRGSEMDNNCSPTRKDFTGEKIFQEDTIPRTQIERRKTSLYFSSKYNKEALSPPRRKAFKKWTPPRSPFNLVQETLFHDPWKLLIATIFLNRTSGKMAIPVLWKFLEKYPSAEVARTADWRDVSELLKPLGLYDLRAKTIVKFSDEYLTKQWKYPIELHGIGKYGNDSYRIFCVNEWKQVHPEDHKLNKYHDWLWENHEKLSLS

As for `C/C(=N\NC(=O)[C@@H]1C(=O)NC[C@H]1c1ccccc1)c1cccc(Br)c1`, the inhibition – broadly, the drop in the measured response relative to a control, in per cent – was 0.963% in [1] (Hit No); -1.98% in assay [2]; 9.22% in assay [3]; 6.5% in assay [4]; -1.98% in assay [5]; 17.2% in [6] (Hit No). Moreover, the inhibition in assay [7] (Hit No) is -0.141%; in assay [8] (Hit No) it was -1.9%; in assay [9] it was 11%.
For `CCCCc1oc2ccccc2c1C(=O)c1cc(I)c(OCCN(CC)CC)c(I)c1`, the inhibition was 28.2% in [1] (Hit No); 15.3% in assay [3]; -6.36% in [4]; 1.42% in [5]; 30.6% in assay [6] (Hit No); 0.672% in assay [7] (Hit No). Further, the inhibition in assay [8] (Hit No) is 5.3%; in assay [9], -0.487%.
Consider `CCc1ccc(OCc2ccccc2C(=O)Nc2ccc3nc(C)cc(N)c3c2)cc1`, for which the inhibition in assay [1] (Hit No) was 43.2%; in assay [2], -4.06%; in [3], -3.13%; in [4], 16.5%; in assay [5] it was -2.29%; in [6] (Hit Yes) it was 82.5%. Further, the inhibition in assay [7] (Hit No) was 12.5%; in assay [8] (Hit Yes), 71.5%; in assay [9], 77.8%.
Regarding `Cc1nnc2n1-c1sc(CCC(=O)N3CCOCC3)cc1C(c1ccccc1Cl)=NC2`, the inhibition was -1.19% in assay [1] (Hit No); 5.28% in [2]; -7.88% in assay [3]; 7.25% in assay [4]; -6.5% in [5]; 14.6% in [6] (Hit No). The inhibition is 0.211% in [7] (Hit No), -4.33% in [8] (Hit No) and 16.7% in assay [9].
On to `COCCn1c(C)c(C)s/c1=N\C(=O)C1C(C)(C)C1(C)C`, for which the inhibition in assay [1] (Hit No) was -7.23%; in [2], 3.06%; in [3] it was -0.421%; in assay [4], 1.51%; in assay [5], -7.32%; in assay [6] (Hit No), 7.06%. Besides, the results for the inhibition in [7] (Hit No), in assay [8] (Hit No) and in [9] were 5.33%, -8.69% and 20.8%, respectively.
For the compound `CCCCCNC(=N)N/N=C/c1c[nH]c2ccc(OC)cc12`, the inhibition in assay [1] (Hit Yes) is 114%; in assay [2], -9.54%; in [3], -3.67%; in [4] it was 20.7%; in assay [5], -3.68%; in [6] (Hit Yes), 103%. The inhibition was found to be 2.43% in assay [7] (Hit No), 108% in assay [8] (Hit Yes) and 114% in assay [9].
For the compound `CSc1ccc(C(=O)N[C@@H]2CCCC[C@@H]2NC(=O)CNC(=O)c2cc(C(F)(F)F)ccc2NC(=O)NC(C)C)cc1`, the inhibition in assay [1] (Hit No) is 13.3%; in assay [2] it was 0.537%; in [3], 0.0151%; in assay [4] it was 14.5%; in [5], -0.695%; in assay [6] (Hit No), 20.7%. Also, the inhibition is -0.224% in assay [7] (Hit No), -1.67% in assay [8] (Hit No) and 2.07% in assay [9].
As to `CC(COc1ccccc1)N(CCCl)Cc1ccccc1` (stereo not drawn), the inhibition in assay [1] (Hit No) is 6.02%; in [2], -3.32%; in assay [3], -8.75%; in [4], 5.01%; in [6] (Hit No), 9.17%; in [7] (Hit Yes) it was 41.7%. For the same compound, the inhibition in assay [8] (Hit No) is 8.43%; in [9] it was 20.2%.
`CCOC(=O)c1cc(C#N)c(N2CCC(C(=O)NS(=O)(=O)Cc3ccccc3)CC2)nc1C`: the inhibition in assay [1] (Hit No) was 12%; in assay [2], -0.649%; in assay [3] it was 7.04%; in assay [4], -3.73%; in assay [5], -6.55%; in assay [6] (Hit No), 22.6%. Moreover, the inhibition in [7] (Hit No) was 4.63%; in assay [8] (Hit No) it was 0.797%; in assay [9], 13.3%.
As to `CC(C)(C#Cc1ccc(NC(=O)COc2ccccc2C(=O)c2ccccc2)c(Cl)c1)C(=O)O`, the inhibition in assay [1] (Hit No) is 83.7%; in assay [2], -9.68%; in assay [3] it was 12.2%; in assay [4] it was 15.6%; in [5], 7.11%; in [6] (Hit No), 61.6%. The figures for the inhibition in [7] (Hit No), in [8] (Hit No) and in assay [9] were 49.5%, 115% and 16.2%, respectively.
For `CC[C@@H]1C(=O)N(C)c2cnc(Nc3ccc(C(=O)NC4CCN(C)CC4)cc3OC)nc2N1C1CCCC1`, the inhibition in [1] (Hit No) is 33%; in [2] it was 2.78%; in assay [3] it was 23.4%; in assay [5], 13.3%; in [6] (Hit No) it was 69.8%; in assay [7] (Hit No), -5.59%. For the same compound, the figures for the inhibition in [8] (Hit No) and in assay [9] were 7.81% and 38.1%, respectively.
With `Cc1noc(-c2ccc(-c3ccc(CC(=O)O)cc3)cc2)c1NC(=O)O[C@H](C)c1ccccc1Cl`, the inhibition is 45.9% in assay [1] (Hit No); -3.47% in assay [2]; -3.86% in assay [3]; -4.48% in assay [4]; -9.06% in assay [5]; 43.6% in assay [6] (Hit No). For the same compound, the values for the inhibition in assay [7] (Hit No), in assay [8] (Hit No) and in assay [9] were 10.8%, 10.4% and 53.1%, respectively.
Regarding `CC(C)N(CCCCOCC(=O)NS(C)(=O)=O)c1cnc(-c2ccccc2)c(-c2ccccc2)n1`, the inhibition was 80.6% in assay [1] (Hit No); 9.29% in assay [2]; -1.68% in [3]; 6.75% in assay [4]; 51% in assay [6] (Hit No); 17.1% in assay [7] (Hit No). For the same compound, the inhibition in assay [8] (Hit No) stood at 55.8%; in assay [9], 47.5%.
On to `COc1cc(C(=O)N(CCCc2ccccc2)Cc2ccc(CC(=O)O)cc2)cc(OC)c1C`, for which the inhibition in assay [1] (Hit No) is 21.5%; in assay [2], -1.83%; in assay [3] it was -4.44%; in assay [4], -7.97%; in [6] (Hit No), 17.3%; in [7] (Hit No), -6.84%. Besides, the figures for the inhibition in assay [8] (Hit No) and in assay [9] were 2.65% and 20.4%, respectively.
With `COc1c(Nc2ccc(S(C)(=O)=O)nc2C)ncnc1OC1CCN(C(=O)OC(C)C)CC1`, the inhibition in [1] (Hit No) was -6.99%; in [2] it was -6.28%; in assay [3] it was -7.64%; in assay [4], 6%; in assay [6] (Hit No) it was -5.57%; in [7] (Hit No), -1.26%. Moreover, the inhibition in [8] (Hit No) is -8.34%; in [9] it was 16.4%.
Consider `CN(C)c1ccnc2sc3c(=O)n(N4CCCCCC4)cnc3c12`, for which the inhibition was -2.87% in assay [1] (Hit No); 7.65% in [2]; -6.77% in [3]; 16% in assay [4]; 5.33% in assay [6] (Hit No); 18.5% in assay [7] (Hit No). For the same compound, the inhibition in assay [8] (Hit No) was 2.57%; in assay [9] it was 6.93%.
On to `Cc1cc(-c2ccc3c(c2)CC[C@H]3N2CC3(CCN(C(=O)Cc4cn5cc(C)sc5n4)CC3)C2)ncn1`, for which the inhibition in assay [1] (Hit No) was 2.75%; in [2], -1.18%; in assay [3] it was -0.24%; in assay [5], -6.41%; in assay [6] (Hit No), 6.67%; in assay [7] (Hit No), -7.69%. Further, the results for the inhibition in assay [8] (Hit No) and in [9] were -2.4% and 0.491%, respectively.
With `CCc1cc2c(c(CC)n1)CCC(=O)N2Cc1ccc(-c2ccccc2-c2nnn[nH]2)cc1`, the inhibition in [1] (Hit No) is 2.76%; in assay [2], 13.9%; in [3] it was -8.27%; in [4], 2.26%; in assay [6] (Hit No) it was 13.7%; in [7] (Hit No) it was 6.16%. The inhibition in assay [8] (Hit No) amounted to 6.08%; in assay [9], 24.1%.
